One experiment deals with ischemic rat heart. The experiment can be described thus: Cardioprotective effect on in vivo ischemic rat heart model (LAD occlusion 45 min / reperfusion 90 min, infarct size). The settings on record: anesthetized rats. As for the experimental part:
Left thoracotomy was performed. […] Cariporide was used for a control group.

Experiment [1] has as its system isolated ischemic rat heart. The experiment can be described thus: Cardioprotective effect on isolated ischemic rat heart model (Langendorff, 30 min global ischemia / 30 min reperfusion). The settings on record: for RPP (rate pressure product, HR × LVDP) / LVEDP (left ventricular end diastolic pressure): after 30 min reperfusion; for RPP (rate pressure product, HR × LVDP): % of value before ischemia; for LVEDP (left ventricular end diastolic pressure): baseline 5 mmHg; for improvement of cardiac function (RPP, LVEDP) compared with cariporide: isolated ischemic rat heart, dose dependent. As for the experimental part: Then, an intravenous injection of 1000 U/kg of heparin was performed before isolating their hearts. Particularly, cannula (PE 240) was inserted in the trachea, and artificial respiration was tried upon the rats by using a rodent ventilator. Under that condition, aortic cannula was inserted into the aorta and the heart was excised under retrograde perfusion. The excised heart was hung on Langendorff apparatus quickly and unnecessary tissues on the heart were removed. […] Then, left ventricular pressure transmitted through the balloon was transduced by using pressure transducer, and amplified by using Plugsys bridge amplifier isovolumetrically. […] Thereafter, the heart was stabilized for 15 minutes. […] Baseline left ventricular developing pressure (LVDP), heart rate (HR), and coronary flow (CF) were measured. LVDP was calculated by substracting […]. Double product RPP (rate-pressure product), another important parameter for indirectly assessing cardiac contratile function in Langendorff heart, whose cardiac output could not be measured ordinarily, was calculated by multiplying HR by LVDP. Throughout the experiment, total coronary blood flow was measured by the use of coronary flow probe (diameter: 1.0 mm) installed in aortic cannula with electromagnetic flowmeter. Temperature of heart was steadily maintained by immersing the heart at 37° C. in physiological saline solution to which 95% O2/5% CO2 was constantly supplied. […] Thereafter, LVDP, HR (heart rate) and CF (coronary flow) were repeatedly measured. Global ischemia was induced by completely shutting off the perfusate for 30 min. […] For a negative control, vehicle was treated only, and cariporide was used as a control.

Turning to `CS(=O)(=O)O.N=C(N)NC(=O)c1ccc(-c2ccccc2)o1` [Example 4, [5-phenylfuran-2-ylcarbonyl]guanidine methanesulfonate], the “Myocardial infarction rate (IS/AAR)” value in the experiment with ischemic rat heart (1.0 mg/kg i.v.) was determined as 49.6%. Also, in experiment [1] (1 μM), the “RPP (rate pressure product, HR × LVDP)” value was found to be 33.4% and the “LVEDP (left ventricular end diastolic pressure)” value was 59.7 mmHg. Further, in experiment [1] (10 μM), the “RPP (rate pressure product, HR × LVDP)” value stood at 72.8% and the “LVEDP (left ventricular end diastolic pressure)” value worked out at 30.3 mmHg. Also, the “improvement of cardiac function (RPP, LVEDP) compared with cariporide” value (shortened to “improvement … compared with cariporide”) in experiment [1] is listed as “better improvement of cardiac function (RPP, LVEDP) than cariporide”.
`N=C(N)NC(=O)c1ccc(-c2cccc(Cl)c2)o1` [Example 6, [5-(3-chlorophenyl)furan-2-ylcarbonyl]guanidine]: the “Myocardial infarction rate (IS/AAR)” value in the experiment on ischemic rat heart (0.1 mg/Kg i.v.) came to 52.7%; in the experiment with ischemic rat heart (0.3 mg/kg i.v.) it was 44.9%; with ischemic rat heart (1.0 mg/kg i.v.), 40.4%. The “RPP (rate pressure product, HR × LVDP)” value is given as 64.4% in experiment [1] (1 μM), 66.8% in experiment [1] (3 μM) and 100.7% in experiment [1] (10 μM). Further, the “LVEDP (left ventricular end diastolic pressure)” value in experiment [1] (1 μM) is on record as 23.0 mmHg; in experiment [1] (3 μM), 27.7 mmHg; in experiment [1] (10 μM), 16.8 mmHg. Besides, the “improvement … compared with cariporide” value in experiment [1] is “better improvement of cardiac function (RPP, LVEDP) than cariporide”.
As for `CS(=O)(=O)O.Cc1ccccc1-c1ccc(C(=O)NC(=N)N)o1` [Example 8, [5-(2-methylphenyl)furan-2-ylcarbonyl]guanidine methanesulfonate], the “Myocardial infarction rate (IS/AAR)” value with ischemic rat heart (1.0 mg/kg i.v.) worked out at 45.9%. In addition, the figures for the “RPP (rate pressure product, HR × LVDP)” value in experiment [1] (3 μM) and in experiment [1] (10 μM) were 50.6% and 93.2%, respectively. Moreover, the “LVEDP (left ventricular end diastolic pressure)” value in experiment [1] (3 μM) is listed as 32.8 mmHg; in experiment [1] (10 μM), 16.5 mmHg. Also, the “improvement … compared with cariporide” value in experiment [1] is “better improvement of cardiac function (RPP, LVEDP) than cariporide”.
On to `CS(=O)(=O)O.N=C(N)NC(=O)c1ccc(-c2ccccc2C(F)(F)F)o1` [Example 11, [5-[2-(trifluoromethyl)phenyl]furan-2-ylcarbonyl]guanidine methanesulfonate], for which the “Myocardial infarction rate (IS/AAR)” value in the experiment on ischemic rat heart (0.3 mg/kg i.v.) was determined as 45.7%. The “LVEDP (left ventricular end diastolic pressure)” value in experiment [1] (10 μM) is 18.7 mmHg.
`COc1ccccc1-c1ccc(C(=O)NC(=N)N)o1.CS(=O)(=O)O` [Example 14, [5-(2-methoxyphenyl)furan-2-ylcarbonyl]guanidine methanesulfonate]: the “Myocardial infarction rate (IS/AAR)” value worked out at 54.2% in the experiment on ischemic rat heart (0.3 mg/kg i.v.) and 33.3% in the experiment on ischemic rat heart (1.0 mg/kg i.v.). The “LVEDP (left ventricular end diastolic pressure)” value in experiment [1] (10 μM) came out at 38.5 mmHg.
Turning to `N=C(N)NC(=O)c1ccc(-c2cccc(Cl)c2Cl)o1` [Example 37, [5-(2,3-dichlorophenyl)furan-2-ylcarbonyl]guanidine], in the experiment with ischemic rat heart (1.0 mg/kg i.v.), the “Myocardial infarction rate (IS/AAR)” value is 40.2%. Moreover, in experiment [1] (10 μM), the “RPP (rate pressure product, HR × LVDP)” value amounted to 39.9% and the “LVEDP (left ventricular end diastolic pressure)” value amounted to 16.3 mmHg.
As to `COc1ccc(Br)cc1-c1ccc(C(=O)NC(=N)N)o1` [Example 48, [5-(2-methoxy-5-bromophenyl)furan-2-ylcarbonyl]guanidine], the “Myocardial infarction rate (IS/AAR)” value in the experiment on ischemic rat heart (0.1 mg/Kg i.v.) was 50.1%.
`CS(=O)(=O)O.N=C(N)NC(=O)c1ccc(-c2cc(Cl)ccc2O)o1` [Example 49, [5-(2-hydroxy-5-chlorophenyl)furan-2-ylcarbonyl]guanidine methanesulfonate]: the results for the “RPP (rate pressure product, HR × LVDP)” value in experiment [1] (1 μM), in experiment [1] (3 μM) and in experiment [1] (10 μM) were 41.1%, 57.2% and 80.5%, respectively. The “LVEDP (left ventricular end diastolic pressure)” value was determined as 35.8 mmHg in experiment [1] (1 μM), 36.6 mmHg in experiment [1] (3 μM) and 20.7 mmHg in experiment [1] (10 μM). Besides, the “improvement … compared with cariporide” value in experiment [1] is “better improvement of cardiac function (RPP, LVEDP) than cariporide”.
Take “[5-(2,5-difluorophenyl)furan-2-ylcarbonyl]guanidine [Example 30]”: the “Myocardial infarction rate (IS/AAR)” value in the experiment on ischemic rat heart (1.0 mg/kg i.v.) is 39.3%. In addition, the “LVEDP (left ventricular end diastolic pressure)” value in experiment [1] (10 μM) was determined as 21.7 mmHg.
In the case of “[5-(2-chlorophenyl)furan-2-ylcarbonyl]guanidine [Example 5]”, in the experiment with ischemic rat heart (1.0 mg/kg i.v.), the “Myocardial infarction rate (IS/AAR)” value was found to be 36.6%. Further, the “LVEDP (left ventricular end diastolic pressure)” value in experiment [1] (10 μM) stood at 30.0 mmHg.
Regarding “[5-(2-ethoxyphenyl)furan-2-ylcarbonyl]guanidine [Example 24]”, the “Myocardial infarction rate (IS/AAR)” value with ischemic rat heart (1.0 mg/kg i.v.) stood at 41.2%. The “LVEDP (left ventricular end diastolic pressure)” value in experiment [1] (10 μM) is 14.0 mmHg.
For “[5-(2-ethylphenyl)furan-2-ylcarbonyl]guanidine [Example 23]” the same measures were 37.7% and 42.3 mmHg.
As for “[5-(2-fluoro-5-methylphenyl)furan-2-ylcarbonyl]guanidine [Example 33]”, in experiment [1] (10 μM), the “RPP (rate pressure product, HR × LVDP)” value stood at 17.1% and the “LVEDP (left ventricular end diastolic pressure)” value is given as 51.0 mmHg.
For the compound “[5-(2-isopropoxyphenyl)furan-2-ylcarbonyl]guanidine [Example 25]”, the “Myocardial infarction rate (IS/AAR)” value in the experiment with ischemic rat heart (1.0 mg/kg i.v.) worked out at 43.0%. For the same compound, the “LVEDP (left ventricular end diastolic pressure)” value in experiment [1] (10 μM) is listed as 25.3 mmHg.
For the compound “[5-(2-methoxy-5-fluorophenyl)furan-2-ylcarbonyl]guanidine [Example 35]”, the “Myocardial infarction rate (IS/AAR)” value in the experiment on ischemic rat heart (1.0 mg/kg i.v.) was 36.2%. For the same compound, in experiment [1] (10 μM), the “RPP (rate pressure product, HR × LVDP)” value stood at 27.4% and the “LVEDP (left ventricular end diastolic pressure)” value stood at 46.3 mmHg.
Regarding “[5-(2-methyl-5-fluorophenyl)furan-2-ylcarbonyl]guanidine [Example 34]”, the “Myocardial infarction rate (IS/AAR)” value in the experiment on ischemic rat heart (1.0 mg/kg i.v.) was 34.7%.
With “[5-(2-phenoxyphenyl)furan-2-ylcarbonyl]guanidine [Example 26]”, in experiment [1] (10 μM), the “RPP (rate pressure product, HR × LVDP)” value is 2.7% and the “LVEDP (left ventricular end diastolic pressure)” value worked out at 32.0 mmHg.
On to “[5-(3,5-dichlorophenyl)furan-2-ylcarbonyl]guanidine [Example 36]”, for which the “Myocardial infarction rate (IS/AAR)” value in the experiment with ischemic rat heart (0.1 mg/Kg i.v.) stood at 52.4%. For the same compound, the “Myocardial infarction rate (IS/AAR)” value with ischemic rat heart (1.0 mg/kg i.v.) turned out to be 34.7%. Besides, in experiment [1] (10 μM), the “RPP (rate pressure product, HR × LVDP)” value was 26.8% and the “LVEDP (left ventricular end diastolic pressure)” value was found to be 36.0 mmHg.
In the case of “[5-(3,5-difluorophenyl)furan-2-ylcarbonyl]guanidine [Example 28]”, the “Myocardial infarction rate (IS/AAR)” value in the experiment on ischemic rat heart (0.1 mg/Kg i.v.) is on record as 53.4%; in the experiment with ischemic rat heart (0.3 mg/kg i.v.) it was 42.3%; in the experiment with ischemic rat heart (1.0 mg/kg i.v.), 33.0%; in the experiment on ischemic rat heart (3.0 mg/kg i.v.), 29.5%. Also, in experiment [1] (3 μM), the “RPP (rate pressure product, HR × LVDP)” value was 41.1%. Besides, the “LVEDP (left ventricular end diastolic pressure)” value in experiment [1] (3 μM) turned out to be 37.5 mmHg; in experiment [1] (10 μM), 18.8 mmHg.
For “[5-(3,5-dimethylphenyl)furan-2-ylcarbonyl]guanidine [Example 42]”, in experiment [1] (10 μM), the “LVEDP (left ventricular end diastolic pressure)” value was determined as 12.7 mmHg.

For the origin of these results see patent US7351843B2, “Furancarbonylguanidine derivatives, their preparation and pharmaceutical compositions containing them” (Korea Research Institute of Chemical Technology, priority 2003, dated 2008).
